The source of these data is the NIST ThermoML archive (doi:10.1016/j.fluid.2005.08.006).

This data set in a line: refractive index (Na D-line) (dimensionless). Conditions: 293.15 K; 101.33 kPa; Liquid; Standard Abbe refractometry.

Molecules are shown by their SMILES. Numbers after ± are expanded uncertainties.

By refractive index is commonly meant a measure of how strongly the sample bends light. As to `CCO` [ethanol], the refractive index is recorded as 1.3612 ± 0.0007.
As for `CCCCCC` [hexane], the figure is 1.3749 ± 0.0007; as for `C1CCCCC1` [cyclohexane], 1.4265 ± 0.0007; as for `CCC(=O)O` [propanoic acid], 1.381 ± 0.0007.
Regarding `CCCCCCCCCC` [decane], the refractive index is 1.4105 ± 0.0007.
As for `CC(C)C(=O)O` [2-methylpropanoic acid], the refractive index amounted to 1.3933 ± 0.0007.
The figure for `CCCCC(=O)O` [pentanoic acid] is 1.4087 ± 0.0007.
